In paper PMC9225712, “Rational design of biodegradable sulphonamide candidates treating septicaemia by synergistic dual inhibition of COX-2/PGE2 axis and DHPS enzyme” (Journal of Enzyme Inhibition and Medicinal Chemistry, 2022):
Marks after values point to notes of the source that are not given here.

Legend:
[1] = tested on: Streptococcus mutans (RCMB 0100172); experiment: Inhibition zone, agar cup diffusion; details: RCMB0100172, 24 h, read-out: inhibition zones (IZ) S. mutans
[2] = tested on: Gram-positive and Gram-negative bacteria; experiment: In vitro antibacterial screening, whole panel; format: cell-based; details: whole bacterial panel, result in words
[3] = tested on: Escherichia coli (RCMB 010052); experiment: Inhibition zone, agar cup diffusion; details: RCMB010052, 24 h, read-out: inhibition zones (IZ) E.coli
[4] = tested on: Shigella dysenteriae (RCMB 0100542); experiment: Inhibition zone, agar cup diffusion; format: cell-based; details: RCMB0100542, 24 h, read-out: inhibition zones (IZ) S. dysenteriae
[5] = tested on: Bacillus subtilis (RCMB 0100162); experiment: Inhibition zone, agar cup diffusion; details: RCMB0100162, 24 h, read-out: inhibition zones (IZ) B. subtillis
[6] = tested on: carrageenan-induced paw edoema; experiment: Carrageenan-induced paw edoema in mice; details: for ED50: Mus musculus, 8 h, read-out: ED50 (95% confidence level); for Thickness of edoema 0h / percentage anti-inflammatory activity (AI%) 2h / Thickness of edoema 2h / percentage anti-inflammatory activity (AI%) 4h / Thickness of edoema 4h / percentage anti-inflammatory activity (AI%) 6h / Thickness of edoema 6h / Thickness of edoema 8h: mice, po 10 µmol/kg b.wt.; for Thickness of edoema 0h: 0 h (before carrageenan); for Thickness of edoema 0h / Thickness of edoema 2h / Thickness of edoema 4h / Thickness of edoema 6h / Thickness of edoema 8h: Mean ± SEM, n = 5; for Thickness of edoema 2h: 2 h after carrageenan; for Thickness of edoema 4h: 4 h after carrageenan; for Thickness of edoema 6h: 6 h after carrageenan; for Thickness of edoema 8h: 8 h after carrageenan
gastric layers = experiment: Gastric ulcerogenic activity; details: fasted male Wistar rats, oral 30 µmol/kg twice at 4 h interval
human recombinant COX-2 = target: T1, human recombinant COX-2 (Homo sapiens, UniProt P35354); experiment: In vitro COX-2 enzymatic assay (Cayman kit 560131); details: for SI COX-1/COX-2: COX-2 selectivity index: COX-1 IC50/COX-2 IC50
T1 sequence (P35354 18-604): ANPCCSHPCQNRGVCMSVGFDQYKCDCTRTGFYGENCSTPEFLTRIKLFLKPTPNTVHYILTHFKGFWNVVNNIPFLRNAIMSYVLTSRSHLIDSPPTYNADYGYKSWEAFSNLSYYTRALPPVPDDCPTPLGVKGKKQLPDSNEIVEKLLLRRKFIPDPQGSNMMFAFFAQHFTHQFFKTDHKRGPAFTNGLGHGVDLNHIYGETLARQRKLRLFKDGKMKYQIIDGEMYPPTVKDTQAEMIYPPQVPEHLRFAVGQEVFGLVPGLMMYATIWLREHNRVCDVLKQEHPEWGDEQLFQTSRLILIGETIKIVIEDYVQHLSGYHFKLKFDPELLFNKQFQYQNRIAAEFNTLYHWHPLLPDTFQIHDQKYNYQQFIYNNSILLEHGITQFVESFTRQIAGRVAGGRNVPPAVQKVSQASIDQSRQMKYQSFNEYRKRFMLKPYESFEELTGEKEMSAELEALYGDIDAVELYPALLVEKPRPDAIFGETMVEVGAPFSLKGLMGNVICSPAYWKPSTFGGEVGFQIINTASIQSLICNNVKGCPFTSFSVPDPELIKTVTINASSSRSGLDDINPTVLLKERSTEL

[7] = tested on: Staphylococcus epidermidis (RCMB 0100183); experiment: Inhibition zone, agar cup diffusion; details: RCMB0100183, 24 h, read-out: inhibition zones (IZ) S. epidermidis
[8] = tested on: Proteus vulgaris (RCMB 010085); experiment: Inhibition zone, agar cup diffusion; details: RCMB010085, 24 h, read-out: inhibition zones (IZ) P. vulgaris
E. coli C11 = details: for ED50, protective effect against bacteremic infection, Escherichia coli: mice, challenge dose 7.1x10^3 CFU/mouse ip, intragastric once a day for 7 days, survival
S. aureus Smith = details: for ED50: Staphylococcus aureus, in Mus musculus, read-out: ED50 against S. aureus infection; for ED50, protective effect against bacteremic infection, Staphylococcus aureus: mice, challenge dose 9.5x10^6 CFU/mouse ip, intragastric once a day for 7 days, survival
[9] = tested on: Staphylococcus aureus (RCMB 0100183); experiment: Inhibition zone, agar cup diffusion; details: RCMB0100183, 24 h, read-out: inhibition zones (IZ) S. aureus
[10] = tested on: Salmonella typhi (RCMB 0100104); experiment: Inhibition zone, agar cup diffusion; format: cell-based; details: Salmonella enterica, 24 h, read-out: inhibition zones (IZ) S. typhi
ovine COX-1 = target: T2, ovine COX-1 (Ovis aries, UniProt P05979); experiment: In vitro COX-1 enzymatic assay (Cayman kit 560131); format: biochemical; details: Mean ± SEM of triplicate determinations
T2 construct: purchased Cayman Chemicals Inc. 560131
T2 sequence (P05979 25-600): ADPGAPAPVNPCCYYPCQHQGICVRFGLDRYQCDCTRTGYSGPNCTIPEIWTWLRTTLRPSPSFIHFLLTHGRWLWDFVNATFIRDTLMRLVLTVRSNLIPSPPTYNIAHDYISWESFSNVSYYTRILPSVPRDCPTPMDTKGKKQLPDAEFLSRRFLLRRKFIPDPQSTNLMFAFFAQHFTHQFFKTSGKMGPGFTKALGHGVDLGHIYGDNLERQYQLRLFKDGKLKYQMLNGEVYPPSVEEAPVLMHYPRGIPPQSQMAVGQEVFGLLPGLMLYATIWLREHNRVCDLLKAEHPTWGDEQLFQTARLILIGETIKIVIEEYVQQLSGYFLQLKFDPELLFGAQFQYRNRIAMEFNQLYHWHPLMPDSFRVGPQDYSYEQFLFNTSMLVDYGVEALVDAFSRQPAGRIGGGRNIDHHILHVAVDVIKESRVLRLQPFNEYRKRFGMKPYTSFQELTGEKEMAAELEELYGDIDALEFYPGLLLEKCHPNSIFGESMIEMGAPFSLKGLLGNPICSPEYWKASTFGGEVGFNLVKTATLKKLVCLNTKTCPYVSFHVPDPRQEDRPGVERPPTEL

[11] = tested on: Pseudomonas aeruginosa (RCMB 0100243); experiment: Inhibition zone, agar cup diffusion; details: RCMB0100243, 24 h, read-out: inhibition zones (IZ) P.aeruginosa
PGE2 = experiment: Estimation of rat plasma PGE2; details: po 10 µmol/kg b.wt., 8 h after carrageenan; for % inhibition of PGE2-production: rat serum; for PGE2 serum conc.: rat, Mean ± SEM, n = 5

Row | Structure (SMILES) | zone of inhibition at 1000 µg/mL [1] [mm] | in vitro antibacterial activity [2] | zone of inhibition at 1000 µg/mL [3] [mm] | zone of inhibition at 1000 µg/mL [4] [mm] | zone of inhibition at 1000 µg/mL [5] [mm] | ED50 [6] [µmol/kg] | Thickness of edoema 0h [6] [mm] | percentage anti-inflammatory activity (AI%) 2h [6] | Thickness of edoema 2h [6] | percentage anti-inflammatory activity (AI%) 4h [6] | Thickness of edoema 4h [6] | percentage anti-inflammatory activity (AI%) 6h [6] | Thickness of edoema 6h [6] | Thickness of edoema 8h [6] | Gastric ulcerogenic effect, histopathological examination of gastric layers (gastric layers) | IC50 (human recombinant COX-2) [µM] | SI COX-1/COX-2 (human recombinant COX-2) | zone of inhibition at 1000 µg/mL [7] [mm] | zone of inhibition at 1000 µg/mL [8] [mm] | ED50, protective effect against bacteremic infection, Escherichia coli (E. coli C11) [µmol/kg/day] | also measured
1 | Cc1ccnc(NS(=O)(=O)c2ccc(/N=N/c3ccc(O)c(C(=O)N4CCOCC4)c3)cc2)n1 [Compound 5o, 4-((4-Hydroxy-3-(morpholine-4-carbonyl)phenyl)diazenyl)-N-(4-methylpyrimidin-2-yl) benzenesulfonamide] | 27 | weak in vitro antibacterial activity | 16 | 23 | 20 | 13.3 | 0.65 ± 0.004 | (6.32%) | 0.89 ± 0.01^c mm | (43.06%) | 0.82 ± 0.02^c mm | (63.41%) | 0.75 ± 0.02^c mm | 0.64 ± 0.02^c mm | erosion in the gastric layers | 0.06 ± 0.0008 | 211.5 | 35 | 19 | 306.4 | ED50 (S. aureus Smith): 353 to 413 µmol/kg; ED50, protective effect against bacteremic infection, Staphylococcus aureus (S. aureus Smith): 352.7 µmol/kg/day; zone of inhibition at 1000 µg/mL [9]: 21 mm; zone of inhibition at 1000 µg/mL [10]: 18 mm; IC50 (ovine COX-1): 12.9 ± 0.05 µM; zone of inhibition at 1000 µg/mL [11]: 18 mm; % inhibition of PGE2-production (PGE2): 72.92%; PGE2 serum conc. (PGE2): 357.636 ± 7.48 pg/mL
2 | CCCCNC(=O)c1cc(/N=N/c2ccc(S(=O)(=O)Nc3nccs3)cc2)ccc1O [Compound 5b, N-Butyl-2-hydroxy-5-((4-(N-(thiazol-2-yl)sulfamoyl)phenyl)diazenyl) benzamide] | 27 | weak in vitro antibacterial activity | 14 | 22 | 20 | 18.7 | 0.68 ± 0.01 | (0%) | 0.95 ± 0.04 mm | (20.83%) | 1.19 ± 0.01 mm | (45.85%) | 1.11 ± 0.01 mm | 1.01 ± 0.02 mm | gastrointestinal safety profile | 0.07 ± 0.0005 | 187.7 | 34 | 19 | 415.7 | ED50 (E. coli C11; Escherichia coli, C11, in Mus musculus, read-out: ED50 against E.coli infection): 416 µmol/kg; ED50 (S. aureus Smith): 413 µmol/kg; ED50, protective effect against bacteremic infection, Staphylococcus aureus (S. aureus Smith): 413.1 µmol/kg/day; zone of inhibition at 1000 µg/mL [9]: 29 mm; zone of inhibition at 1000 µg/mL [10]: 14 mm; IC50 (ovine COX-1): 12.2 ± 0.06 µM; zone of inhibition at 1000 µg/mL [11]: 16 mm; % inhibition of PGE2-production (PGE2): 65.70%; PGE2 serum conc. (PGE2): 452.954 ± 6.48 pg/mL
3 | O=C(c1cc(/N=N/c2ccc(S(=O)(=O)Nc3ncccn3)cc2)ccc1O)N1CCOCC1 [Compound 5n, 4-((4-Hydroxy-3-(morpholine-4-carbonyl)phenyl)diazenyl)-N-(pyrimidin-2-yl) benzenesulfonamide] | 28 | weak in vitro antibacterial activity | 17 | 24 | 17 | 14.4 | 0.66 ± 0.004 | (-8.42%) | 1.03 ± 0.03 mm | (10.42%) | 1.29 ± 0.01 mm | (51.71%) | 0.99 ± 0.05 mm | 0.90 ± 0.01 mm | gastrointestinal safety profile | 0.07 ± 0.0005 | 153.6 | 33 | 18 | 367.1 | ED50 (S. aureus Smith): 353 to 413 µmol/kg; ED50, protective effect against bacteremic infection, Staphylococcus aureus (S. aureus Smith): 397.6 µmol/kg/day; zone of inhibition at 1000 µg/mL [9]: 16 mm; zone of inhibition at 1000 µg/mL [10]: 14 mm; IC50 (ovine COX-1): 10.6 ± 0.08 µM; zone of inhibition at 1000 µg/mL [11]: 14 mm; % inhibition of PGE2-production (PGE2): 55.18%; PGE2 serum conc. (PGE2): 591.842 ± 5.96 pg/mL
